Measurements from patent publication US7727977B2, “Kynurenine 3-hydroxylase inhibitors for the treatment of diabetes” (Merck Patent Gesellschaft mit beschrankter Haftung, priority 2003, dated 2010).

Tests used:
primary hepatocytes [1] = assay: Hepatic glucose production, basal lactate/pyruvate 2 hours, in primary hepatocytes; format: cell-based, Wistar rats; details: for HGP % of control: Basal Lact/Pyr 2 hours; for hepatic glucose production in vitro (result in words): primary rat hepatocytes, summary of Tables III and IV
Method: (§1) Study of the Effect on Glucose Production by the Liver Materials and Method:
After washing in pH 7.4 PBS buffer, the cells are incubated for two hours at 37° C. in a Krebs buffer free of glucose and of insulin, containing lactate/pyruvate (10/1 mM) in the presence or absence of the test compounds. 10 μM MICA (5-methoxyindole-2-carboxylic acid) is used as reference substance. Two identical experiments are performed (Table III-2).
The protein assay is performed on the rest of the incubation medium via the Lowry method (BIO-RAD Dc protein assay, BIO-RAD 5000116).
(§2) The results are expressed as nmoles of glucose produced per […] of proteins. The statistical test used is the t test.

primary hepatocytes [2] = assay: Hepatic glucose production stimulated by AMPc/DEX in primary hepatocytes; format: cell-based, Wistar rats
Method: as §1
The hepatocytes are isolated from the liver of Wistar rats fasted for 24 hours, according to the method described in Methods Cell Biol., 13 (1975), 29-83.
1) The hepatocytes are cultured for 16 to 18 hours in DMEM medium in the presence of AMP cyclase/dexamethasone at respective concentrations of 5×10^−5 M and 5×10^−7 M, with preincubation of the products at the test doses. After washing in pH 7.4 PBS buffer, the cells are incubated for three hours at 37° C. in a Krebs/AMPc/DEX buffer at the abovementioned concentrations. 0.1 μM insulin is used as reference substance. Two identical experiments are performed (Table III-1).
Quantification of the glucose is performed via a colorimetric method using glucose oxidase (IL test™ Glucose, Monarch 181633-80). The protein assay is performed on the rest of the incubation medium via the Lowry method (BIO-RAD Dc protein assay, BIO-RAD 5000116).
as §2

kynurenine 3-hydroxylase = biological target: T1, kynurenine 3-hydroxylase (Rattus norvegicus, UniProt O88867); assay: Inhibitory activity on kynurenine 3-hydroxylase in rat liver homogenate; format: biochemical; details: test concentration not given
T1 construct: incubating 10 μL of the homogenate with NADPH (2 mM), kynurenine (100 μM); from tissue; host or cells: rat liver (pellet of the homogenate, resuspended)
Method: Study of the Inhibitory Activity on Kynurenine 3-hydroxylase in Rat Liver
Rat livers are homogenised (1:8 weight/volume) in a buffer solution comprising: • 0.25 M sucrose • 50 mM pH 7.4 Tris; • 1 mM EDTA; and • 1 mM DTT.
The homogenates are centrifuged for 10 minutes at 12 000 rpm. The pellets are resuspended in the buffer solution described above (1:2 weight/volume).
The kynurenine 3-hydroxylase inhibition is determined by incubating 10 μL of the homogenate with NADPH (2 mM), kynurenine (100 μM) and various concentrations of the test compounds in a final volume of 100 μL at 37° C. for 5 minutes.
The compounds are tested at concentrations of between 1 μM and 300 μM. 3,4-Dimethoxy-N-[4-(3-nitrophenyl)thiazol-2-yl]benzenesulfonamide is a compound from the company Hoffmann-LaRoche (Basle, see J. Med. Chem., 40 (1997), 4738). 30H-Kynurenine was tested according to the protocol described by Carpendo et al. (Neuroscience, 61 (1994), 237-244).
Each of the experiments is repeated once and the IC50 values (in μmol/L) are calculated and given in the form of a mean of these two experiments.
Results concerning representative examples of family Ih are given in Table II below, in which is indicated the measurement of the percentage of remaining kynurenine 3-hydroxylase activity relative to the control (100%).

[3] = test system: perfused isolated pancreases from N0 STZ diabetic rats; assay: Secretion of insulin and glucagon in perfused isolated pancreases from N0 STZ diabetic rats; format: cell-based; details: absence of glucose, then 16.5 mM glucose; diabetic rat pancreas
Excerpt: Study of the Effect on the Secretion of the Pancreatic Hormones Insulin and Glucagon, in N0STZ Diabetic Rats
The results are expressed as the mean±SEM (standard error of mean) of several experiments. The statistical test used is the Scheffé test.

T1 sequence (O88867 whole entry): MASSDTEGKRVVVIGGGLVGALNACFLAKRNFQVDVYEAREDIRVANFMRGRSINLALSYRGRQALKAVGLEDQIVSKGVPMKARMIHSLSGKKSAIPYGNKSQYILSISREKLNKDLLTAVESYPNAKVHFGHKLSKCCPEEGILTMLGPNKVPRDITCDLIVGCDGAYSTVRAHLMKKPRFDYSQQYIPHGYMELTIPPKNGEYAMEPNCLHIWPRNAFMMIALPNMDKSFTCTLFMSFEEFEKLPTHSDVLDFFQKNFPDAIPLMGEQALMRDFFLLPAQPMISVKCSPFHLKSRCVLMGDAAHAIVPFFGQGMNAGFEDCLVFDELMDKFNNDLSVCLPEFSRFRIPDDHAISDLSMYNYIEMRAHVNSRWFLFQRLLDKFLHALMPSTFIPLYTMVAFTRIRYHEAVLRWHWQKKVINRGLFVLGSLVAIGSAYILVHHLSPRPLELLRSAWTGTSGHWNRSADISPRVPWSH

| Molecule | HGP % of control (primary hepatocytes [1]; 1 μM) | HGP % of control (primary hepatocytes [1]; 10 μM) | HGP % of control (primary hepatocytes [1]; 100 μM) | hepatic glucose production in vitro (result in words) (primary hepatocytes [1]) | HGP % of control (primary hepatocytes [2]; 1 μM) | HGP % of control (primary hepatocytes [2]; 10 μM) | HGP % of control (primary hepatocytes [2]; 100 μM) | Remaining kynurenine 3-hydroxylase activity (% of control) (kynurenine 3-hydroxylase) [%] | glucagon secretion (result in words) [3] | insulin secretion (result in words) [3] |
| --- | --- | --- | --- | --- | --- | --- | --- | --- | --- | --- |
| 2-(2′-naphthylthio)-4-phenyl-4-oxobutanoic acid [Ih-1] | 10 % of control | 127 % of control | 95 % of control | powerful inhibitors of hepatic glucose production in vitro | 103 % of control | 83 % of control | 15 % of control | 23.2 | – | – |
| N[C@@H](Cc1c[nH]c2ccccc12)C(=O)O [Tryptophan, reference compound] | – | – | – | powerful inhibitors of hepatic glucose production in vitro | – | – | – | – | stimulates glucagon secretion in a glucose-dependent manner | stimulates insulin secretion in a glucose-dependent manner |
